Measured values taken from patent publication US8735439B2, “Chlorin e6-folic acid conjugate, preparation method thereof, and a pharmaceutical composition for the treatment of cancer comprising the same” (Diatech Korea Co., Ltd., priority 2009, dated 2014).

Tests used:
HeLa tumor cells = assay: Cytotoxicity (antiproliferative assay) in the absence of light exposure; assay type: cell-based; conditions: for number of HeLa cells: no light, 24 hours
Description: Cytotoxicity was analyzed, considering the intensity of proliferative processes in cells, photosensitizer concentration, and dose of optical power. For each point, 3 flasks with cell monolayer were used.
The monolayer culture of HeLa tumor cells was chosen and used as the cell.
The culture of HeLa tumor cells was grown in nutrient medium 199 or in nutrient medium containing hemohydrolyzate supplemented with 10% fetal bovine serum and […] of kanamycin. […]
Flasks with light-protective cover (dark cytotoxicity) were incubated at 37.5° C. for 1 hour. The cells were washed with Hank's solution 4 times. 2.0 ml of fresh nutrient medium were added, and the cells were irradiated at the temperature of melting ice for 5, 10, 15 or 20 mins by the light flux of a “METALAZ” laser medical device (wavelength: 627.8 nm, 578.2 or 510.6 nm) or “LD 680-2000” (wavelength: 670-690 nm), depending on the wavelength of maximum spectral absorption of the studied photosensitizer, at a dose of 40 J/cm^2. After 20-24 hours, the number of tumor cell was counted in Goriaev's chamber.

[1] = Generation of singlet oxygen (luminescence at 1270 nm); assay type: physicochemical
Description: Photoresponse of this process (φΔ) was measured by a relative method through integral intensity of singlet oxygen luminescence at a wavelength of 1270 nm. Excitation was conducted at a wavelength of 531 nm (pulse energy 4 microJ, frequency 1 kHz). Tests were made in air saturated buffer solutions at room temperature. […] The φΔ in D2O was considered as 0.7.
To analyze kinetic curves of singlet oxygen luminescence, the following function was used:
wherein A is a coefficient depending on initial concentrations of interacted reagents, and k1 and k2 are constants of luminescence signal increase and extinction, respectively.
In the case when the deactivation rate constant Kτ of the photosensitizer triplet state exceeds the deactivation rate constant KΔ of the molecular oxygen […] state, the constant of increase k1 corresponds to Kτ, and constant of extinction k2 corresponds to KΔ. In the case of Kτ<KΔ, inversion of the kinetics of singlet oxygen luminescence occurs. In this case, k2=Kτ and k1=KΔ. […] Thus, based on kinetic data, the life times of singlet oxygen and triplet state can be calculated.

[2] = Spectral and fluorescent parameters of chlorin e6 conjugate in different systems; assay type: physicochemical
Description: Pigment-protein complexes have been formed by adding to the solution of human serum albumin (HAS) a specific amount of photosensitizer dissolved in the same buffer. […] Similarly, the photosensitizer was included in detergent micelle (Triton X-100, C=10^−3M).
The electronic absorption spectra of the subject solution were recorded on Specord UV-Vis. The fluorescence spectra and value of degree of fluorescence polarization (P) were recorded on an automatic spectrofluorimeter (Institute of Physics). Life time of photosensitizer fluorescence (ts) was estimated using an impulse fluorometer operating in the mode of photons counting.
The main feature of the absorption spectrum is intensive (ε=4.8 10^4 M^−1 cm^−1) Qx (0-0) band at 660 nm, which falls into the spectral window of the majority of biological tissues.
Complex formation of chlorin e6 conjugate, and HSA, liposomes or detergent micelles leads to bathochromic shift in the absorption and fluorescence spectra of pigment. However, an increase in fluorescence photoresponse (B) was observed, which correlates with the growth of life time (ts) without changing of the Kravec integral value.

[3] = air saturated buffer solution, room temperature

## [γ-(6-aminohexyl)folic acid]-chlorin e6 [chlorin e6 conjugate]
HeLa tumor cells; Hela cells, 24 hr incubation, absence of light exposure
  cell survival rate: about 90%
HeLa tumor cells; photosensitizer conc. 1 (μm)
  number of HeLa cells: 102.1 percentage of the control
HeLa tumor cells; photosensitizer conc. 2.5 (μm)
  number of HeLa cells: 95.6 percentage of the control
HeLa tumor cells; photosensitizer conc. 5.0 (μm)
  number of HeLa cells: 94.1 percentage of the control
HeLa tumor cells; photosensitizer conc. 10.0 (μm)
  number of HeLa cells: 95.9 percentage of the control
HeLa tumor cells; photosensitizer conc. 20.0 (μm)
  number of HeLa cells: 89.0 percentage of the control
HeLa tumor cells; photosensitizer conc. 30.0 (μm)
  number of HeLa cells: 86.6 percentage of the control
[1]; H2O, pH 8.1
  φΔ (efficiency of ^1O2 generation): 0.70
[1]; HSA, H2O, pH 8.1
  φΔ (efficiency of ^1O2 generation): 0.63-
[1]; Pyridine
  φΔ (efficiency of ^1O2 generation): 0.68
[1]; Triton X-100
  φΔ (efficiency of ^1O2 generation): 0.80
[1]; [3]
  τt (life time of triplet state) from kinetic curves of singlet oxygen luminescence: 2.0±0.2 microsec.
  τΔ (life time of singlet oxygen) from kinetic curves of singlet oxygen luminescence: 3.6±0.2 microsec.
[1]; pH 6.0
  photoresponse of photosensitized formation of singlet oxygen: 0.52
[1]; pH 8.1
  photoresponse of photosensitized formation of singlet oxygen: 0.7
[2]; Dimethyl sulfoxide
  l^00abs: 661 Nm
  l^00fl: 672 nm
  tS (life time of fluorescence): 4.6 ns
[2]; H2O, pH 8.1
  B (fluorescence photoresponse): 0.16
  l^00abs: 657 Nm
  l^00fl: 664 nm
  tS (life time of fluorescence): 4.3 ns
[2]; HSA, pH 8.1
  B (fluorescence photoresponse): 0.18
  l^00abs: 664 Nm
  l^00fl: 669 nm
  tS (life time of fluorescence): 5.2 ns
[2]; Liposomes, pH 8.1
  B (fluorescence photoresponse): 0.21
  l^00abs: 665 Nm
  l^00fl: 670 nm
  tS (life time of fluorescence): 5.4 ns
[2]; Methanol
  l^00abs: 662 Nm
  l^00fl: 667 nm
  tS (life time of fluorescence): 4.8 ns
[2]; Pyridine
  B (fluorescence photoresponse): 0.18
  l^00abs: 666 Nm
  l^00fl: 673 nm
  tS (life time of fluorescence): 5.0 ns
[2]; Tetrahydrofuran
  l^00abs: 667 Nm
  tS (life time of fluorescence): 5.0 ns
[2]; Triton X-100, pH 8.1
  B (fluorescence photoresponse): 0.19
  l^00abs: 665 Nm
  l^00fl: 670 nm
  tS (life time of fluorescence): 5.7 ns
[2]; in liposomes
  P (degree of fluorescence polarization): 0.13
